The test system of one experiment is MV-3 cells. Nature of the experiment: T-cell - TCB - MV3 killing assay (MCSP-TCB, RFP object count by Incucyte). It is filed as cell-based, human. The following applies: 5 d; for Emax: Homo sapiens, MV-3, 120 h, normalized: MCSP-TCB only = neutral control, 20 μM reference compound A1 = 100%, read-out: MSCP TCB killing MV-3 cells 5 d Emax; for EC50: primary human T-cells + MCSP-TCB, MV-3 RFP cells, read-out: MSCP TCB killing MV-3 cells 5 d EC50.

Experiment [1] concerns primary human T-cells. Nature of the experiment: Proliferation assay after 5 days (CellTiter-Glo, CD3 stimulation; PBS counter screen). It is filed as cell-based. The following applies: CD3 stimulation; for Emax / Emax proliferation (% activation): 5 days, normalized to reference compound A1 as stimulator control = 100%, DMSO neutral control; for Emax: read-out: Emax proliferation (% activation); for EC50: primary human T-cells, CellTiter-Glo after 5 days, EC50 of fitted sigmoidal curve, read-out: Tcell Proliferation CD3 EC50. The gist of the method:
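After compound addition to medium-only plates, cells are cultured 5 days, equilibrated to room temperature, mixed with an equal volume of CellTiter-Glo 2.0 and rocked 15 min before luminescence is read. Signal reflects ATP content, taken as proportional to cell number.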
(In ATP-based viability assays light output follows the ATP content of the culture.)

For experiment [2], the system named is primary human T-cells.

The values that follow come from patent US20240368150A1 (Hoffmann-La Roche Inc., priority 2021, published 2024).

Where two headings read alike, the source gives them in different places. Where only a bound is given, the exact number is not on record here.

Take `N[C@H]1CS(=O)(=O)c2cc(F)c(-c3nnc(CC(F)(F)F)o3)cc2N(Cc2ccc(OC(F)(F)F)cc2)C1=O` [Example 56, (3R)-3-Amino-8-fluoro-1,1-dioxo-7-[5-(2,2,2-trifluoroethyl)-1,3,4-oxadiazol-2-yl]-5-[[4-(trifluoromethoxy)phenyl]methyl]-2,3-dihydro-1λ^6,5-benzothiazepin-4-one]: in the experiment with MV-3 cells, the Emax was 123% and the EC50 was 0.11 µM. In addition, in the experiment with primary human T-cells [1] (Homo sapiens, T-cell, 120 h), the Emax stood at 136% and the EC50 came to 0.414 µM.
For `CCc1noc(-c2cc3c(cc2F)S(=O)(=O)C[C@H](N)C(=O)N3Cc2ccc(Cl)cc2)n1` [Example 41, (3R)-3-Amino-5-[(4-chlorophenyl)methyl]-7-(3-ethyl-1,2,4-oxadiazol-5-yl)-8-fluoro-1,1-dioxo-2,3-dihydro-1λ^6,5-benzothiazepin-4-one] the same measures were 92%, 0.23 µM, 61% and 9.36 µM.
The compound `CCCC(=O)N[C@H]1CS(=O)(=O)c2cc(F)c(-c3nnc(C(C)(C)C)o3)cc2N(Cc2ccc(Cl)cc2)C1=O` [Example 261, N-[(3R)-7-(5-tert-butyl-1,3,4-oxadiazol-2-yl)-5-[(4-chlorophenyl)methyl]-8-fluoro-1,1,4-trioxo-2,3-dihydro-1λ^6,5-benzothiazepin-3-yl]butanamide] yielded an EC50 in the experiment on primary human T-cells [2] of 2.69 µM. In the experiment with primary human T-cells [1] (Homo sapiens, T-cell, 120 h), the Emax stood at 115% and the EC50 is 0.428 µM.
Turning to `N[C@H]1CS(=O)(=O)c2cc(F)c(-c3ccn[nH]3)cc2N(Cc2ccc(Cl)cc2)C1=O` [Example 37, (3R)-3-amino-5-[(4-chlorophenyl)methyl]-8-fluoro-1,1-dioxo-7-(1H-pyrazol-5-yl)-2,3-dihydro-1λ^6,5-benzothiazepin-4-one], the EC50 in the experiment on primary human T-cells [2] was over 20 µM. In addition, in the experiment with primary human T-cells [1] (Homo sapiens, T-cell, 120 h), the Emax came out at 57% and the EC50 is 15.3 µM.
Consider `COC(=O)N1CC(Nc2nnc(-c3cc4c(cc3F)S(=O)(=O)C[C@H](N)C(=O)N4Cc3ccc(Cl)cc3)o2)CC(F)(F)C1` (stereo partly drawn) [Example 490, methyl 3,3-difluoro-5-[[5-[(3R)-3-amino-5-[(4-chlorophenyl)methyl]-8-fluoro-1,1,4-trioxo-2,3-dihydro-1λ^6,5-benzothiazepin-7-yl]-1,3,4-oxadiazol-2-yl]amino]piperidine-1-carboxylate], for which the EC50 was 3.76 µM in the experiment on primary human T-cells [2] and 6.05 µM with primary human T-cells [1] (Homo sapiens, T-cell, 120 h). Besides, the Emax with primary human T-cells [1] (Homo sapiens, T-cell, 120 h) was determined as 72%.
For the compound `CN(C)C(=O)c1nnc(-c2cc3c(cc2F)S(=O)(=O)C[C@H](N)C(=O)N3Cc2ccc(Cl)cc2)o1` [Example 87, N,N-dimethyl-5-[(3R)-3-amino-5-[(4-chlorophenyl)methyl]-8-fluoro-1,1,4-trioxo-2,3-dihydro-1λ^6,5-benzothiazepin-7-yl]-1,3,4-oxadiazole-2-carboxamide], the EC50 in the experiment with primary human T-cells [2] came out at 1.53 µM; with primary human T-cells [1] (Homo sapiens, T-cell, 120 h) it was 2.74 µM. The Emax in the experiment on primary human T-cells [1] (Homo sapiens, T-cell, 120 h) is 82%.
In turn, `CN1CCN(c2nnc(-c3cc4c(cc3F)S(=O)(=O)C[C@H](N)C(=O)N4Cc3ccc(Cl)cc3)o2)CC1` [Example 470, (3R)-3-amino-5-[(4-chlorophenyl)methyl]-8-fluoro-7-[5-(4-methylpiperazin-1-yl)-1,3,4-oxadiazol-2-yl]-1,1-dioxo-2,3-dihydro-1λ^6,5-benzothiazepin-4-one] showed an EC50 in the experiment with primary human T-cells [2] of 0.551 µM. Besides, in the experiment on primary human T-cells [1] (Homo sapiens, T-cell, 120 h), the Emax was found to be 101% and the EC50 turned out to be 1.41 µM.
Regarding `CC(C)(C)n1nnc(-c2cc3c(cc2F)[S+]([O-])C[C@H](N)C(=O)N3Cc2ccc(Cl)cc2)n1` (stereo partly drawn) [Example 34, (3R)-3-amino-7-(2-tert-butyltetrazol-5-yl)-5-[(4-chlorophenyl)methyl]-8-fluoro-1-oxo-2,3-dihydro-1λ^4,5-benzothiazepin-4-one], the EC50 in the experiment with primary human T-cells [2] amounted to 5.87 µM. In the experiment on primary human T-cells [1], the “Emax proliferation (% activation)” value came out at 100 % activation and the EC50 is 2.8 µM.
In the experiment with primary human T-cells [2], `N[C@H]1CS(=O)(=O)c2cc(F)c(-c3nnc(C(=O)N4[C@@H]5CCC[C@H]4CC5)o3)cc2N(Cc2ccc(Cl)cc2)C1=O` [Example 96, (3R)-3-amino-5-[(4-chlorophenyl)methyl]-8-fluoro-1,1-dioxo-7-[5-[(1R,5S)-8-azabicyclo[3.2.1]octane-8-carbonyl]-1,3,4-oxadiazol-2-yl]-2,3-dihydro-1λ^6,5-benzothiazepin-4-one] registered an EC50 of 0.604 µM. In the experiment with primary human T-cells [1] (Homo sapiens, T-cell, 120 h), the Emax was found to be 46% and the EC50 was over 2.73 µM.
For `CC(C)(C)c1nnc(-c2cc3c(cc2F)S(=O)(=O)C[C@H](N)C(=O)N3Cc2ccc(OCC(F)(F)F)cc2)o1` [Example 243, (3R)-3-amino-7-(5-tert-butyl-1,3,4-oxadiazol-2-yl)-8-fluoro-1,1-dioxo-5-[[4-(2,2,2-trifluoroethoxy)phenyl]methyl]-2,3-dihydro-1λ^6,5-benzothiazepin-4-one] the same measures were 0.918 µM, 129% and 0.246 µM.
For `N[C@H]1CS(=O)(=O)c2cc(F)c(-c3nnc(C4CCOCC4)o3)cc2N(Cc2ccc(Cl)cc2)C1=O` [Example 82, (3R)-3-Amino-5-[(4-chlorophenyl)methyl]-8-fluoro-1,1-dioxo-7-(5-tetrahydropyran-4-yl-1,3,4-oxadiazol-2-yl)-2,3-dihydro-1λ^6,5-benzothiazepin-4-one], the EC50 with primary human T-cells [2] was determined as 0.631 µM. Moreover, in the experiment with primary human T-cells [1] (Homo sapiens, T-cell, 120 h), the Emax turned out to be 148% and the EC50 worked out at 0.728 µM.
On the same counts, the results for `Cc1cccc(-c2nnc(-c3cc4c(cc3F)S(=O)(=O)C[C@H](N)C(=O)N4Cc3ccc(Cl)cc3)o2)c1` [Example 107, (3R)-3-amino-5-[(4-chlorophenyl)methyl]-8-fluoro-7-[5-(m-tolyl)-1,3,4-oxadiazol-2-yl]-1,1-dioxo-2,3-dihydro-1λ^6,5-benzothiazepin-4-one] are 0.188 µM, 134% and 0.955 µM.
For `N[C@H]1C[S+]([O-])c2cc(F)c(-c3noc(N4CCOCC4)n3)cc2N(Cc2ccc(Cl)cc2)C1=O` (single isomer, unassigned; epimer a) [Example 209], the EC50 amounted to 5.81 µM in the experiment on primary human T-cells [2] and 4.1 µM in the experiment with primary human T-cells [1] (Homo sapiens, T-cell, 120 h). For the same compound, the Emax in the experiment with primary human T-cells [1] (Homo sapiens, T-cell, 120 h) turned out to be 92%.
Turning to `CN1CC(c2nc(-c3cc4c(cc3F)[S+]([O-])C[C@H](N)C(=O)N4Cc3ccc(Cl)cc3)no2)CC(F)(F)C1` (single isomer, unassigned; epimer b) [Example 343], the EC50 with primary human T-cells [2] turned out to be 4.83 µM. In addition, in the experiment on primary human T-cells [1], the “Emax proliferation (% activation)” value amounted to 97 % activation and the EC50 worked out at 2.62 µM.
In the experiment on primary human T-cells [2], `COC(=O)N1CC2CC2(c2nnc(-c3cc4c(cc3F)S(=O)(=O)C[C@H](N)C(=O)N4Cc3ccc(Cl)cc3)o2)C1` (stereo partly drawn) [Example 183, methyl 1-[5-[(3R)-3-amino-5-[(4-chlorophenyl)methyl]-8-fluoro-1,1,4-trioxo-2,3-dihydro-1λ^6,5-benzothiazepin-7-yl]-1,3,4-oxadiazol-2-yl]-3-azabicyclo[3.1.0]hexane-3-carboxylate] yielded an EC50 of 0.043 µM. For the same compound, in the experiment with primary human T-cells [1] (Homo sapiens, T-cell, 120 h), the Emax was 131% and the EC50 stood at 0.336 µM.
In the experiment with primary human T-cells [2], `N[C@H]1CS(=O)(=O)c2cc(F)c(-c3noc(C(=O)NCC(F)(F)F)n3)cc2N(Cc2ccc(Cl)cc2)C1=O` [Example 291, 3-[(3R)-3-amino-5-[(4-chlorophenyl)methyl]-8-fluoro-1,1,4-trioxo-2,3-dihydro-1λ^6,5-benzothiazepin-7-yl]-N-(2,2,2-trifluoroethyl)-1,2,4-oxadiazole-5-carboxamide] returned an EC50 of 1.7 µM. In the experiment on primary human T-cells [1] (Homo sapiens, T-cell, 120 h), the Emax came to 104% and the EC50 came to 0.446 µM.
`COC(=O)N1CC(c2nnc(-c3cc4c(cc3F)S(=O)(=O)C[C@H](N)C(=O)N4Cc3ccc(Cl)cc3)o2)C2(CC2)C1` (stereo partly drawn) [Example 177, methyl 7-[5-[(3R)-3-amino-5-[(4-chlorophenyl)methyl]-8-fluoro-1,1,4-trioxo-2,3-dihydro-1λ^6,5-benzothiazepin-7-yl]-1,3,4-oxadiazol-2-yl]-5-azaspiro[2.4]heptane-5-carboxylate] yielded an EC50 in the experiment on primary human T-cells [2] of 1.44 µM. In the experiment on primary human T-cells [1] (Homo sapiens, T-cell, 120 h), the Emax is 68% and the EC50 is 0.788 µM.
Consider `CC(C)Oc1ccc(CN2C(=O)[C@@H](N)CS(=O)(=O)c3cc(F)c(-c4noc(C5CN(C)CC(F)(F)C5)n4)cc32)nc1` (stereo partly drawn) [Example 346, (3R)-3-amino-7-[5-(5,5-difluoro-1-methyl-3-piperidyl)-1,2,4-oxadiazol-3-yl]-8-fluoro-5-[(5-isopropoxy-2-pyridyl)methyl]-1,1-dioxo-2,3-dihydro-1λ^6,5-benzothiazepin-4-one], for which the EC50 in the experiment on primary human T-cells [2] is 5.73 µM. In the experiment with primary human T-cells [1] (Homo sapiens, T-cell, 120 h), the Emax was 100% and the EC50 was 5.65 µM.
For `CC(C)(CCCN)c1nnc(-c2cc3c(cc2F)S(=O)(=O)C[C@H](N)C(=O)N3Cc2ccc(Cl)cc2)o1` [Example 149, (3R)-3-amino-7-[5-(4-amino-1,1-dimethyl-butyl)-1,3,4-oxadiazol-2-yl]-5-[(4-chlorophenyl)methyl]-8-fluoro-1,1-dioxo-2,3-dihydro-1λ^6,5-benzothiazepin-4-one] the same measures were 4.23 µM, 57% and 2.56 µM.
